Results reported in EP0041795A2, “Injectable composition of rapamycin” (AYERST, MCKENNA AND HARRISON INC., priority 1980, dated 1981).

Experiment: Solubility of rapamycin
Type: physicochemical

Question: Which results are given for `CO[C@H]1C[C@@H]2CC[C@@H](C)[C@@](O)(O2)C(=O)C(=O)N2CCCC[C@H]2C(=O)O[C@H]([C@H](C)C[C@@H]2CC[C@@H](O)[C@H](OC)C2)CC(=O)[C@H](C)/C=C(\C)[C@@H](O)[C@@H](OC)C(=O)[C@H](C)C[C@H](C)/C=C/C=C/C=C/1C` [Rapamycin]?
Answer: solubility in aqueous solutions (aqueous solutions): virtually insoluble; solubility in surfactants (most surfactants, including the nonionic surfactants): insoluble; solubility in polyoxyethylated glycerin hydroxy fatty acids (rapamycin per se, polyoxyethylated glycerin hydroxy fatty acids): does not readily go into solution
